From PubChem BioAssay (NCI)
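Abbreviation: GI50, concentration required for 50% inhibition of growth. The concentration for full growth arrest is given as TGI.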

Columns and labels:
Test in all cases: NCI anticancer screen, dose series, 384-well format
HCC-2998 colon = tested on: HCC-2998 colon
SF-539 CNS = tested on: SF-539 CNS
OVCAR-8 ovarian = tested on: OVCAR-8 ovarian
HT29 colon = tested on: HT29 colon
UACC-62 melanoma = tested on: UACC-62 melanoma
SF-295 CNS = tested on: SF-295 CNS
OVCAR-4 ovarian = tested on: OVCAR-4 ovarian
SK-MEL-28 melanoma = tested on: SK-MEL-28 melanoma
MDA-MB-231 breast = tested on: MDA-MB-231 breast
A549 NSCLC = tested on: A549 NSCLC
MALME-3M melanoma = tested on: MALME-3M melanoma
U251 glioblastoma = tested on: U251 glioblastoma
NCI-H522 lung = tested on: NCI-H522 lung
SK-OV-3 ovarian = tested on: SK-OV-3 ovarian
BT-549 breast = tested on: BT-549 breast
NCI-H23 lung = tested on: NCI-H23 lung
K-562 leukemia = tested on: K-562 leukemia
KM12 colon = tested on: KM12 colon
HL-60(TB) leukemia = tested on: HL-60(TB) leukemia
HOP-62 NSCLC = tested on: HOP-62 NSCLC
UACC-257 melanoma = tested on: UACC-257 melanoma
RPMI-8226 leukemia = tested on: RPMI-8226 leukemia
EKVX NSCLC = tested on: EKVX NSCLC
A498 renal = tested on: A498 renal
SNB-75 CNS = tested on: SNB-75 CNS
NCI-H226 lung = tested on: NCI-H226 lung
LOX IMVI melanoma = tested on: LOX IMVI melanoma
MDA-MB-468 breast = tested on: MDA-MB-468 breast
HS 578T breast = tested on: HS 578T breast
HCT-116 colon = tested on: HCT-116 colon
SNB-19 CNS = tested on: SNB-19 CNS
T-47D breast = tested on: T-47D breast
NCI-H460 NSCLC = tested on: NCI-H460 NSCLC
RXF 393 renal = tested on: RXF 393 renal
DU-145 prostate = tested on: DU-145 prostate
NCI-H322M lung = tested on: NCI-H322M lung
ACHN renal = tested on: ACHN renal
IGROV1 ovarian = tested on: IGROV1 ovarian
OVCAR-5 ovarian = tested on: OVCAR-5 ovarian
SW-620 colon = tested on: SW-620 colon
MCF7 breast = tested on: MCF7 breast
HCT-15 colon = tested on: HCT-15 colon
MDA-MB-435 melanoma = tested on: MDA-MB-435 melanoma
SF-268 CNS = tested on: SF-268 CNS
UO-31 renal = tested on: UO-31 renal
CCRF-CEM leukemia = tested on: CCRF-CEM leukemia
786-0 renal = tested on: 786-0 renal
HOP-92 NSCLC = tested on: HOP-92 NSCLC
M14 melanoma = tested on: M14 melanoma
SN12C renal = tested on: SN12C renal
SK-MEL-5 melanoma = tested on: SK-MEL-5 melanoma
CAKI-1 renal = tested on: CAKI-1 renal
TK-10 renal = tested on: TK-10 renal
PC-3 prostate = tested on: PC-3 prostate
NCI/ADR-RES ovarian = tested on: NCI/ADR-RES ovarian
OVCAR-3 ovarian = tested on: OVCAR-3 ovarian
MOLT-4 leukemia = tested on: MOLT-4 leukemia
SK-MEL-2 melanoma = tested on: SK-MEL-2 melanoma
COLO 205 colon = tested on: COLO 205 colon
SR leukemia = tested on: SR leukemia

## O=C(NCCN1CCOCC1)Nc1nc2ccc(Sc3nnc4ccc(-c5ccc(F)cc5)nn34)cc2s1
HCC-2998 colon
  GI50: 5.29 µM
  TGI: 34.7 µM
SF-539 CNS
  GI50: 4.86 µM
  TGI: > 100 µM
OVCAR-8 ovarian
  GI50: > 100 µM
  TGI: > 100 µM
HT29 colon
  GI50: 4.93 µM
  TGI: 53.3 µM
UACC-62 melanoma
  GI50: 4.58 µM
  TGI: 42.3 µM
SF-295 CNS
  GI50: 2.34 µM
  TGI: 14.3 µM
OVCAR-4 ovarian
  GI50: > 100 µM
  TGI: > 100 µM
SK-MEL-28 melanoma
  GI50: 3 µM
  TGI: 7.53 µM
MDA-MB-231 breast
  GI50: 3.73 µM
  TGI: > 100 µM
A549 NSCLC
  GI50: > 100 µM
  TGI: > 100 µM
MALME-3M melanoma
  GI50: 3.77 µM
  TGI: 13.3 µM
U251 glioblastoma
  GI50: 7.1 µM
  TGI: 60.7 µM
NCI-H522 lung
  GI50: 17.7 µM
  TGI: > 100 µM
SK-OV-3 ovarian
  GI50: > 100 µM
  TGI: > 100 µM
BT-549 breast
  GI50: 2.85 µM
  TGI: > 100 µM
NCI-H23 lung
  GI50: 13 µM
  TGI: > 100 µM
K-562 leukemia
  GI50: 3.98 µM
  TGI: 21.2 µM
KM12 colon
  GI50: 0.452 µM
  TGI: > 100 µM
HL-60(TB) leukemia
  GI50: 4.25 µM
  TGI: 8.46 µM
HOP-62 NSCLC
  GI50: 7.49 µM
  TGI: > 100 µM
UACC-257 melanoma
  GI50: 4.3 µM
  TGI: > 100 µM
RPMI-8226 leukemia
  GI50: 1.18 µM
  TGI: 2.58 µM
EKVX NSCLC
  GI50: 84 µM
  TGI: > 100 µM
A498 renal
  GI50: 6.7 µM
  TGI: > 100 µM
SNB-75 CNS
  GI50: 3.2 µM
  TGI: > 100 µM
NCI-H226 lung
  GI50: 3.04 µM
  TGI: > 100 µM
LOX IMVI melanoma
  GI50: 20.7 µM
  TGI: > 100 µM
MDA-MB-468 breast
  GI50: 2.93 µM
  TGI: 8.45 µM
HS 578T breast
  GI50: 2.31 µM
  TGI: 5.35 µM
HCT-116 colon
  GI50: 77 µM
  TGI: > 100 µM
SNB-19 CNS
  GI50: 5.14 µM
  TGI: > 100 µM
T-47D breast
  GI50: 3.1 µM
  TGI: 32.5 µM
NCI-H460 NSCLC
  GI50: 5 µM
  TGI: > 100 µM
RXF 393 renal
  GI50: 0.606 µM
  TGI: 2.18 µM
DU-145 prostate
  GI50: > 100 µM
  TGI: > 100 µM
NCI-H322M lung
  GI50: 42.9 µM
  TGI: > 100 µM
ACHN renal
  GI50: > 100 µM
  TGI: > 100 µM
IGROV1 ovarian
  GI50: > 100 µM
  TGI: > 100 µM
OVCAR-5 ovarian
  GI50: > 100 µM
  TGI: > 100 µM
SW-620 colon
  GI50: > 100 µM
  TGI: > 100 µM
MCF7 breast
  GI50: 5.39 µM
  TGI: > 100 µM
HCT-15 colon
  GI50: 70.6 µM
  TGI: > 100 µM
MDA-MB-435 melanoma
  GI50: > 100 µM
  TGI: > 100 µM
SF-268 CNS
  GI50: 2.71 µM
  TGI: 7 µM
UO-31 renal
  GI50: > 100 µM
  TGI: > 100 µM
CCRF-CEM leukemia
  GI50: 4.41 µM
  TGI: > 100 µM
786-0 renal
  GI50: 1.61 µM
  TGI: 3.83 µM
HOP-92 NSCLC
  GI50: 5.22 µM
  TGI: > 100 µM
M14 melanoma
  GI50: > 100 µM
  TGI: > 100 µM
SN12C renal
  GI50: > 100 µM
  TGI: > 100 µM
SK-MEL-5 melanoma
  GI50: 3.52 µM
  TGI: 47 µM
CAKI-1 renal
  GI50: 22.6 µM
  TGI: > 100 µM
TK-10 renal
  GI50: > 100 µM
  TGI: > 100 µM
PC-3 prostate
  GI50: > 100 µM
  TGI: > 100 µM
NCI/ADR-RES ovarian
  GI50: > 100 µM
  TGI: > 100 µM
OVCAR-3 ovarian
  GI50: > 100 µM
  TGI: > 100 µM
MOLT-4 leukemia
  GI50: 1.74 µM
  TGI: 3.53 µM

## CS(=O)(=O)OCCCCOS(C)(=O)=O
HL-60(TB) leukemia
  GI50: 17.7 µM
MOLT-4 leukemia
  GI50: 9.66 µM
  TGI: 21.8 µM

## C/C(=N\NC(=O)c1cccc(S(=O)(=O)N2CCN(C)CC2)c1)c1cc(Cl)ccc1O
HCC-2998 colon
  GI50: 0.0545 µM
  TGI: 15 µM
SF-539 CNS
  GI50: 0.442 µM
  TGI: 3.31 µM
OVCAR-8 ovarian
  GI50: 0.477 µM
  TGI: 1.95 µM
HT29 colon
  GI50: 0.439 µM
  TGI: 13.6 µM
SK-MEL-2 melanoma
  GI50: 0.567 µM
  TGI: 3.58 µM
UACC-62 melanoma
  GI50: 0.544 µM
  TGI: 2.86 µM
SF-295 CNS
  GI50: 0.25 µM
  TGI: 1.31 µM
OVCAR-4 ovarian
  GI50: 0.201 µM
  TGI: 29 µM
SK-MEL-28 melanoma
  GI50: 0.134 µM
  TGI: 14.3 µM
COLO 205 colon
  GI50: 0.236 µM
  TGI: 0.594 µM
A549 NSCLC
  GI50: 0.447 µM
  TGI: > 100 µM
MALME-3M melanoma
  GI50: 0.641 µM
  TGI: 8.52 µM
U251 glioblastoma
  GI50: 0.478 µM
  TGI: 8.25 µM
NCI-H522 lung
  GI50: 0.471 µM
  TGI: 12 µM
SK-OV-3 ovarian
  GI50: 0.422 µM
  TGI: 57.2 µM
BT-549 breast
  GI50: 0.351 µM
  TGI: 4.19 µM
NCI-H23 lung
  GI50: 0.236 µM
  TGI: 0.59 µM
K-562 leukemia
  GI50: 2.62 µM
  TGI: 13.8 µM
KM12 colon
  GI50: 0.541 µM
  TGI: 14.7 µM
HL-60(TB) leukemia
  GI50: 0.442 µM
  TGI: 1.22 µM
HOP-62 NSCLC
  GI50: 0.142 µM
  TGI: 0.898 µM
UACC-257 melanoma
  GI50: 0.521 µM
  TGI: 3.98 µM
RPMI-8226 leukemia
  GI50: 0.339 µM
  TGI: 1.18 µM
A498 renal
  GI50: 0.268 µM
  TGI: 20.1 µM
NCI-H226 lung
  GI50: 0.523 µM
  TGI: 3.45 µM
LOX IMVI melanoma
  GI50: 0.644 µM
  TGI: 2.03 µM
MDA-MB-468 breast
  GI50: 0.177 µM
  TGI: 0.382 µM
SR leukemia
  GI50: 0.144 µM
  TGI: 0.287 µM
HCT-116 colon
  GI50: 0.425 µM
  TGI: 2.02 µM
SNB-19 CNS
  GI50: 1.06 µM
  TGI: 6.02 µM
T-47D breast
  GI50: 0.657 µM
  TGI: 9.27 µM
NCI-H460 NSCLC
  GI50: 0.296 µM
  TGI: 1.21 µM
RXF 393 renal
  GI50: 0.043 µM
  TGI: 0.557 µM
DU-145 prostate
  GI50: 0.534 µM
  TGI: 11.6 µM
NCI-H322M lung
  GI50: 0.231 µM
  TGI: 32 µM
ACHN renal
  GI50: 0.627 µM
  TGI: 13.4 µM
IGROV1 ovarian
  GI50: 0.339 µM
  TGI: 2.75 µM
OVCAR-5 ovarian
  GI50: 0.455 µM
  TGI: 35.3 µM
SW-620 colon
  GI50: 1.64 µM
  TGI: 19 µM
MCF7 breast
  GI50: 0.594 µM
  TGI: 8.01 µM
HCT-15 colon
  GI50: 0.301 µM
  TGI: 12.9 µM
MDA-MB-435 melanoma
  GI50: 0.557 µM
  TGI: 74.2 µM
SF-268 CNS
  GI50: 0.141 µM
  TGI: 2.15 µM
UO-31 renal
  GI50: 0.489 µM
  TGI: 8.09 µM
CCRF-CEM leukemia
  GI50: 0.216 µM
  TGI: 1.07 µM
786-0 renal
  GI50: 0.345 µM
  TGI: 2.21 µM
HOP-92 NSCLC
  GI50: 0.573 µM
  TGI: 6.82 µM
M14 melanoma
  GI50: 0.247 µM
  TGI: 1.99 µM
SN12C renal
  GI50: 0.735 µM
  TGI: 3.36 µM
SK-MEL-5 melanoma
  GI50: 0.062 µM
  TGI: 0.441 µM
CAKI-1 renal
  GI50: 0.472 µM
  TGI: 10.2 µM
TK-10 renal
  GI50: 0.642 µM
  TGI: 19.8 µM
PC-3 prostate
  GI50: 1.16 µM
  TGI: 17.4 µM
NCI/ADR-RES ovarian
  GI50: 0.777 µM
  TGI: 2.36 µM
MOLT-4 leukemia
  GI50: 0.114 µM
  TGI: 0.24 µM
